Laboratory results taken from BindingDB's records for doi:10.1016/j.bmcl.2005.03.076 (Janssen-Cilag, 2005).

Target: Sodium-dependent noradrenaline transporter (Rattus norvegicus)
Assay: In vitro binding affinity against norepinephrine transporter using [3H]-nisoxetine as radioligand

Compound	Ki
Brc1ccc2c(c1)[C@H]1O[C@H](Cn3oc4ccc(CN5CCOCC5)cc43)C[C@H]1c1ccccc1O2 [8-((2S,3aS,12bS)-11-Bromo-2,3,3a,12b-tetrahydro-1,8-dioxa-dibenzo[e,h]azulen-2-ylmethyl)-3-morpholin-4-ylmethyl-7-oxa-8-aza-bicyclo[4.2.0]octa-1(6),2,4-triene]	3110 nM
Nc1ccc2on(C[C@@H]3C[C@H]4c5ccccc5Oc5ccc(Br)cc5[C@H]4O3)c2c1 [8-((2S,3aS,12bS)-11-Bromo-2,3,3a,12b-tetrahydro-1,8-dioxa-dibenzo[e,h]azulen-2-ylmethyl)-7-oxa-8-aza-bicyclo[4.2.0]octa-1(6),2,4-trien-3-ylamine]	620 nM
CN(C)c1ccc2on(C[C@@H]3C[C@H]4c5ccccc5Oc5ccc(Br)cc5[C@H]4O3)c2c1 [[8-((2S,3aS,12bS)-11-Bromo-2,3,3a,12b-tetrahydro-1,8-dioxa-dibenzo[e,h]azulen-2-ylmethyl)-7-oxa-8-aza-bicyclo[4.2.0]octa-1(6),2,4-trien-3-yl]-dimethyl-amine]	2250 nM
